From article PMC8462848, “Quinazolin-4(3H)-one based potential multiple tyrosine kinase inhibitors with excellent cytotoxicity” (Journal of Enzyme Inhibition and Medicinal Chemistry, 2021)

Legend:
HER2 = biological target: T1, HER2 (Homo sapiens, UniProt P04626); experiment: HER2 kinase assay kit, Kinase-Glo MAX luminescence; format: biochemical; conditions: for inhibition at 0.01 µM / inhibition at 0.1 µM / inhibition at 1 µM / inhibition at 10 µM: one experimental data; for IC50: mean ± SD of triplicate
T1 construct: purchased #40721
Description: (§1) The HER2/EGFR/VEGFR2 assay kit is designed to measure HER2/EGFR/VEGFR-2 inhibitory activity for screening and profiling applications, using Kinase-Glo® MAX as a detection reagent. The HER2/EGFR/VEGFR2 assay kit comes in a convenient 96-well format, with enough purified recombinant HER2/EGFR/VEGFR2 enzyme, HER2/EGFR/VEGFR2 substrate, ATP and kinase buffer 1 for 100 enzyme reactions. […] […] The quinazolin-4(3H)-ones were diluted in 10% DMSO and 5 μl of the dilution was added to a 50 μl reaction so that the final concentration of DMSO was 1% in all of the reactions. All of the enzymatic reactions were conducted at 30 °C for 40 min. The 50 μl reaction mixture contained 40 mM Tris, pH 7.4, 10 mM MgCl2, 0.1 mg/mL BSA, 1 mM DTT, 10 mM ATP, kinase substrate and the enzyme HER2 / EGFR / VEGFR2. After the enzymatic reaction, 50 μl of Kinase-Glo® MAX luminescence kinase assay solution was added to each reaction and the plates were incubated for 5 min at room temperature. Luminescence signal was measured using a Bio Tek Synergy 2 microplate reader (For detail enzyme assay protocol and the results, please see supplementary data).

[1] = test system: A2780 (human ovary adenocarcinoma) cells; experiment: MTT cytotoxicity assay, A2780; format: cell-based; conditions: Homo sapiens, A2780, mean ± SD of triplicate
Description: (§2) The cytotoxicity of the synthesised quinazolin-4(3H)-ones was evaluated by MTT assay, as previously described. Two cancer cell lines, MCF7 (human breast adenocarcinoma) and A2780 (human ovary adenocarcinoma), were used in this study, which were obtained from the ATCC (Rockville, MD, USA). […] Additionally, compounds were prepared at the same medium to obtain serial dilutions (50, 25, […] and 0.1 µM). […] The media were aspirated, and the formazan crystals were solubilised by adding 150 µL DMSO. Absorbance was read on a multi-plate reader (BioRad) at […]. […] The data were obtained from triplicates and analysed using statistical software.

EGFR = biological target: T2, EGFR (Homo sapiens, UniProt P00533); experiment: EGFR kinase assay kit, Kinase-Glo MAX luminescence; format: biochemical; conditions: for inhibition at 0.01 µM / inhibition at 0.1 µM / inhibition at 1 µM / inhibition at 10 µM: one experimental data; for IC50: mean ± SD of triplicate
T2 construct: purchased #40321
Description: as §1

VEGFR2 = biological target: T3, VEGFR2 (Homo sapiens, UniProt P35968); experiment: VEGFR2 kinase assay kit, Kinase-Glo MAX luminescence; format: biochemical; conditions: for inhibition at 0.01 µM / inhibition at 0.1 µM / inhibition at 1 µM / inhibition at 10 µM: one experimental data, read-out: % Inhibition VEGFR-2; for IC50: mean ± SD of triplicate
T3 construct: purchased #40325
Description: as §1

[2] = test system: MCF7 (human breast adenocarcinoma) cells; experiment: MTT cytotoxicity assay, MCF7; format: cell-based; conditions: Homo sapiens, MCF7, mean ± SD of triplicate
Description: as §2

CDK2/CyclinA2 [3] = biological target: T4, CDK2/CyclinA2 (Homo sapiens, UniProt P24941); experiment: CDK2 Assay Kit, Kinase-Glo MAX luminescence; format: biochemical; conditions: mean ± SD of triplicate
T4 construct: purchased #79599

CDK2/CyclinA2 [4] = biological target: T4, CDK2/CyclinA2; experiment: CDK2 Assay Kit, Kinase-Glo MAX luminescence; format: biochemical; conditions: one experimental data
Description: The CDK2 Assay Kit is designed to measure CDK2/CyclinA2 activity for screening and profiling applications, using Kinase-Glo® MAX as a detection reagent. The CDK2 Assay Kit comes in a convenient 96-well format, with enough purified recombinant CDK2/CyclinA2 enzyme, CDK substrate peptide, ATP and kinase assay buffer for 100 enzyme reactions. […] […] The compounds were diluted in 10% DMSO and 5 μl of the dilution was added to a 50 μl reaction so that the final concentration of DMSO was 1% in all of the reactions. All of the enzymatic reactions were conducted at 30 °C for 40 min. The 50 μl reaction mixture contained 40 mM Tris, pH 7.4, 10 mM MgCl2, 0.1 mg/mL BSA, 1 mM DTT, 10 mM ATP, Kinase substrate and the enzyme (CDK2/CyclinA2). After the enzymatic reaction, 50 μl of Kinase-Glo® MAX Luminescence kinase assay solution was added to each reaction and the plates were incubated for 5 min at room temperature. Luminescence signal was measured using a Bio Tek Synergy 2 microplate reader.
Figure S1. Calculation of the IC20 Values of Protein Kinase Enzyme CDK2 for 2f
* All the kinase IC20 (µM) were calculated according to the above equations.
(1 picture or pasted object on this page, not shown here)

T3 sequence (P35968 20-1356): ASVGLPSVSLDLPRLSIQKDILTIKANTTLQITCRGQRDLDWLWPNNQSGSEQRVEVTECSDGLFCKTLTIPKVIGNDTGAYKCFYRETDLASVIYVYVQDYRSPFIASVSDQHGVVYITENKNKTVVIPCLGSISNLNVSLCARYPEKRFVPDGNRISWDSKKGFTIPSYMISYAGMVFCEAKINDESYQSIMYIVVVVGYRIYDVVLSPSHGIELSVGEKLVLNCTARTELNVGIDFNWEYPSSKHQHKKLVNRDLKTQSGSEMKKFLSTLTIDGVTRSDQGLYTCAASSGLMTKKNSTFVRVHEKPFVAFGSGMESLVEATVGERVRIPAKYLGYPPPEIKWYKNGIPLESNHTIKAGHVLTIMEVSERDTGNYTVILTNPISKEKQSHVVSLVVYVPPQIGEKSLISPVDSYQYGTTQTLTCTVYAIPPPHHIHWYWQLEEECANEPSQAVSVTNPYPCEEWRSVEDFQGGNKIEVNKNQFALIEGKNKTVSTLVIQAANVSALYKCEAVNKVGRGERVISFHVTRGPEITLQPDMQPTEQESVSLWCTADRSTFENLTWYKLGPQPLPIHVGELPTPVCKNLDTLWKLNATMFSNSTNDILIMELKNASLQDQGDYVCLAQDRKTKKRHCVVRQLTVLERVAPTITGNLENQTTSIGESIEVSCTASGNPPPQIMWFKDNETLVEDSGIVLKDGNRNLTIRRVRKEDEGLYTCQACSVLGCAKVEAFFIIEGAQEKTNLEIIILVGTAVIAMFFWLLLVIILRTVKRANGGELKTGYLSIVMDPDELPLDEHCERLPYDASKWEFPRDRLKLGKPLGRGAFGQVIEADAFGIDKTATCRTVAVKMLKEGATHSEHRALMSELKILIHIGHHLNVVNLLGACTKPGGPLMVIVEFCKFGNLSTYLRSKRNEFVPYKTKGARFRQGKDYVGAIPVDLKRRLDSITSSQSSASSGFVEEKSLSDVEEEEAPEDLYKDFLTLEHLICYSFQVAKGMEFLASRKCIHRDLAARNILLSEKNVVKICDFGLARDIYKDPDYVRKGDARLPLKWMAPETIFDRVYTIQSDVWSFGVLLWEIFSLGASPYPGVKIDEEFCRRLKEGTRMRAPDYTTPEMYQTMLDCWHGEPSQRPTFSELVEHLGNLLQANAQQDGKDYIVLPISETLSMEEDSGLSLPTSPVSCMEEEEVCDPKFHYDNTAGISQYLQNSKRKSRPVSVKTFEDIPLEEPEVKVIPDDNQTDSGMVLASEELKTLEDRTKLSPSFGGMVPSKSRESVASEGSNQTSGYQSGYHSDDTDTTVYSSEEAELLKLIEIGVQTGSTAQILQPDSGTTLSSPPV
T1 sequence (P04626 23-1255): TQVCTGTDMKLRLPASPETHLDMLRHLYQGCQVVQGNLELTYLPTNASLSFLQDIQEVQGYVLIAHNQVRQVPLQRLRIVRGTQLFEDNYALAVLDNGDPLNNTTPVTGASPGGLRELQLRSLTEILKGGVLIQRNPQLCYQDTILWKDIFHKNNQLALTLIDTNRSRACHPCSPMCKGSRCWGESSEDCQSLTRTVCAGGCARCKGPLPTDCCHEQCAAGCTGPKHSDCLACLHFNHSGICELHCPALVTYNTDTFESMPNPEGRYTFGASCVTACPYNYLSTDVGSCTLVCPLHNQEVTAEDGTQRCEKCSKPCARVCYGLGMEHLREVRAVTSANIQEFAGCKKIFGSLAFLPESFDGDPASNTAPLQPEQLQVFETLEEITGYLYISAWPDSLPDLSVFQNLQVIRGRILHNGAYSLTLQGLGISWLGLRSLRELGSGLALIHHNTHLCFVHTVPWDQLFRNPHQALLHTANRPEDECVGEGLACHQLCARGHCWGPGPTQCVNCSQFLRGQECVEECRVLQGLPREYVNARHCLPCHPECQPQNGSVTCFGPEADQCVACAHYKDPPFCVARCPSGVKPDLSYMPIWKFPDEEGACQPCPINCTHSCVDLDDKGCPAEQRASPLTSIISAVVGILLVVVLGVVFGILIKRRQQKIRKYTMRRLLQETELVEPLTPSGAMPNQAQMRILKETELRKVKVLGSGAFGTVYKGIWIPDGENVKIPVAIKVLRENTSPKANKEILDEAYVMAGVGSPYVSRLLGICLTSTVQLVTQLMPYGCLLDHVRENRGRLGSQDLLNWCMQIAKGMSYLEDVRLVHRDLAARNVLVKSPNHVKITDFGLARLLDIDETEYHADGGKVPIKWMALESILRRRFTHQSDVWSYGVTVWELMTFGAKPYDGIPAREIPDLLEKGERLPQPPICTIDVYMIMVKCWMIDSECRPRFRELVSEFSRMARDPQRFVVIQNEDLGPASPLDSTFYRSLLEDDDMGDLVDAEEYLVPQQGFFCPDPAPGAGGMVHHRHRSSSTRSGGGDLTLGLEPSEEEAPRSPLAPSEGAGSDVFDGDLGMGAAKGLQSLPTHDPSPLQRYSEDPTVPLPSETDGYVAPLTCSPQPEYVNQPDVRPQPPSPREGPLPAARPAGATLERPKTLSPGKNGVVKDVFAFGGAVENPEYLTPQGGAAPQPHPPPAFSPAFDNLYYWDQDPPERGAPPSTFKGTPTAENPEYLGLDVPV
T2 sequence (P00533 25-1210): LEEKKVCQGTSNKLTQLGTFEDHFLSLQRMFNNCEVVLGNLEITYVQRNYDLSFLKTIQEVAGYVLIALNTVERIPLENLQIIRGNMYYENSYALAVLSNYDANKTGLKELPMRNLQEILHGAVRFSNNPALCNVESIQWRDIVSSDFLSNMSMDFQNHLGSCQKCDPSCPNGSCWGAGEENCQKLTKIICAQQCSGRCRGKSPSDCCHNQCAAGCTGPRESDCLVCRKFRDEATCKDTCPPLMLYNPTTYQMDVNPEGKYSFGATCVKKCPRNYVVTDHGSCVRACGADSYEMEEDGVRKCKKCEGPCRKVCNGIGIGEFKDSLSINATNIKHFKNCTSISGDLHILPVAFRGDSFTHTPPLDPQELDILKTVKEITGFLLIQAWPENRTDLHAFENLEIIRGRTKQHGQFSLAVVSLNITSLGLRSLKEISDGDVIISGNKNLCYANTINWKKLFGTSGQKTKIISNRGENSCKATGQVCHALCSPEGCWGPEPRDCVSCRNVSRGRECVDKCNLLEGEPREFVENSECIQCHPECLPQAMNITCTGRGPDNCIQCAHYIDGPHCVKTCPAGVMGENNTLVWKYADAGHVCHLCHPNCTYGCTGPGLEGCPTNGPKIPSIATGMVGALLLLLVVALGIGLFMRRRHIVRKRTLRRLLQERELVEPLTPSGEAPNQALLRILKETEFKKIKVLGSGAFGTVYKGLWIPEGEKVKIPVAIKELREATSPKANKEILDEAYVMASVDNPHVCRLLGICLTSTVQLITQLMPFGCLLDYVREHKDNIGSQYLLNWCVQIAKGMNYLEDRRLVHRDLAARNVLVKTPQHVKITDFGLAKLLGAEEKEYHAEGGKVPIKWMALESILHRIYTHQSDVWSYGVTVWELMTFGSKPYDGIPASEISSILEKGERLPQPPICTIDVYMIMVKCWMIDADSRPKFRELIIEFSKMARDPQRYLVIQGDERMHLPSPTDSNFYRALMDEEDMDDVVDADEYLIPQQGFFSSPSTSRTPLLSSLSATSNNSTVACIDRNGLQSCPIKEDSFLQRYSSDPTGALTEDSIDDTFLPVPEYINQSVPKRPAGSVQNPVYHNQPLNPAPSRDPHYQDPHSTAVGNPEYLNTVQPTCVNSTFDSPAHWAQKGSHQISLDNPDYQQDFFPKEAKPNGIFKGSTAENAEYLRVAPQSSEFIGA

SMILES | inhibition at 0.01 µM (HER2) [%] | inhibition at 0.1 µM (HER2) [%] | inhibition at 1 µM (HER2) [%] | inhibition at 10 µM (HER2) [%] | IC50 (HER2) [nM] | IC50 [1] [nM] | inhibition at 0.01 µM (EGFR) [%] | inhibition at 0.1 µM (EGFR) [%] | inhibition at 1 µM (EGFR) [%] | inhibition at 10 µM (EGFR) [%] | IC50 (EGFR) [nM] | inhibition at 0.01 µM (VEGFR2) [%] | inhibition at 0.1 µM (VEGFR2) [%] | inhibition at 1 µM (VEGFR2) [%] | inhibition at 10 µM (VEGFR2) [%] | IC50 (VEGFR2) [nM] | melting point [°C] | IC50 [2] [nM] | IC50 (CDK2/CyclinA2 [3]) [nM] | inhibition at 0.01 µM (CDK2/CyclinA2 [4]) [%] | other results
NNC(=O)CSc1nc2c(F)cc(F)cc2c(=O)n1Cc1ccccc1 [3h, 2-((3-Benzyl-6,8-difluoro-4-oxo-3,4-dihydroquinazolin-2-yl)thio)acetohydrazide] | 2.73 | 44.4 | 77.3 | 89.8 | 248 ± 23 | 630 ± 160 | 8.4 | 38 | 29.2 | 87.2 | 128 ± 16 | 3.17 | 19.5 | 33.4 | 33.1 | 1370 ± 26 | 185 to 186 | 840 ± 50 | 257 ± 16 | 3.74 | inhibition at 0.1 µM (CDK2/CyclinA2 [4]): 19.9%; inhibition at 1 µM (CDK2/CyclinA2 [4]): 70.2%; inhibition at 10 µM (CDK2/CyclinA2 [4]): 82.1%
CCOC(=O)CSc1nc2ccc(Cl)cc2c(=O)n1Cc1ccccc1 [2f, Ethyl 2-((3-benzyl-6-chloro-4-oxo-3,4-dihydroquinazolin-2-yl)thio)acetate] | 2.33 | 38.9 | 74.8 | 89.8 | 264 ± 13 | 1320 ± 430 | 2.18 | 19.1 | 29.2 | 83.2 | 584 ± 11 | 3.49 | 20.2 | 40.1 | 38.3 | 1920 ± 21 | 73 to 75 | 1560 ± 240 | 424 ± 12 | 4.32 | inhibition at 0.1 µM (CDK2/CyclinA2 [4]): 31.2%; inhibition at 1 µM (CDK2/CyclinA2 [4]): 32.9%; inhibition at 10 µM (CDK2/CyclinA2 [4]): 84%
CCOC(=O)CSc1nc2c(C)cc(Cl)cc2c(=O)n1Cc1ccccc1 [2j] | 12.3 | 47 | 82.4 | 93.5 | 343 ± 15 | 2680 ± 90 | 22.2 | 49.9 | 84.3 | 90.2 | 813 ± 22 | 0.324 | 20.3 | 38.9 | 33.9 | 247 ± 15 | 132 to 134 | 3790 ± 960 | 862 ± 16 | 4.28 | inhibition at 0.1 µM (CDK2/CyclinA2 [4]): 40.5%; inhibition at 1 µM (CDK2/CyclinA2 [4]): 37.8%; inhibition at 10 µM (CDK2/CyclinA2 [4]): 83.7%
CCOC(=O)CSc1nc2c(F)cc(F)cc2c(=O)n1Cc1ccccc1 [2h, Ethyl 2-((3-benzyl-6,8-difluoro-4-oxo-3,4-dihydroquinazolin-2-yl)thio)acetate] | 9.07 | 38.9 | 32.3 | 82.3 | 138 ± 12 | 1400 ± 340 | 3.71 | 27.5 | 21 | 77.3 | 102 ± 14 | 13.3 | 38.9 | 70.8 | 88 | 2190 ± 24 | 120 to 123 | 840 ± 160 | 318 ± 23 | 2.43 | inhibition at 0.1 µM (CDK2/CyclinA2 [4]): 12.5%; inhibition at 1 µM (CDK2/CyclinA2 [4]): 24.4%; inhibition at 10 µM (CDK2/CyclinA2 [4]): 80.2%
Cc1cc(Cl)cc2c(=O)n(Cc3ccccc3)c(SCC(=O)NN)nc12 [3j] | 2.33 | 39.5 | 72 | 92.2 | 222 ± 12 | 220 ± 30 | 18.7 | 48.8 | 81 | 89.9 | 371 ± 14 | 1.98 | 22.3 | 41.1 | 74.4 | 3085 ± 16 | 216 to 220 | 200 ± 20 | 473 ± 33 | 8.13 | inhibition at 0.1 µM (CDK2/CyclinA2 [4]): 42.8%; inhibition at 1 µM (CDK2/CyclinA2 [4]): 38.4%; inhibition at 10 µM (CDK2/CyclinA2 [4]): 84%
CCOC(=O)CSc1nc2cc(OC)c(OC)cc2c(=O)n1Cc1ccccc1 [2i, Ethyl 2-((3-benzyl-6,7-dimethoxy-4-oxo-3,4-dihydroquinazolin-2-yl)thio)acetate] | 20.4 | 24.4 | 83.7 | 94.8 | 128 ± 24 | 1160 ± 100 | 11.8 | 43.7 | 39.1 | 82.3 | 97 ± 19 | 8.13 | 31.8 | 20.3 | 77.8 | 2846 ± 14 | 104 to 105 | 2700 ± 160 | 173 ± 12 | 4.28 | inhibition at 0.1 µM (CDK2/CyclinA2 [4]): 40.5%; inhibition at 1 µM (CDK2/CyclinA2 [4]): 37.8%; inhibition at 10 µM (CDK2/CyclinA2 [4]): 83.7%
